From patent US12605358B2, “Composition for preventing or treating nervous system diseases comprising compound that inhibits mTOR signaling pathway as active ingredient” (ALIAD BIOPHARMA, priority 2021, dated 2026)

Tested on: primary cultured hippocampal neurons
Assay: LC3-eGFP puncta formation assay (autophagy promotion)
Format: cell-based, rat
Details: rapamycin and HN-1703 at 0.1 μM and 0.5 μM respectively, 12 hours; FIG. 3A
Description: Primary neurons culture was performed from the hippocampus of rat (SD, Orient Bio) embryonic 16-day (E16) embryos. The left and right hemispheres of the extracted brain were separated using sterile tweezers under a dissecting microscope, the meninges were peeled off, the hippocampus was cut with No. 55 tweezers, and neural progenitor cells were mechanically dissolved in a Ca^2+/Mg^2+-free HBSS (Invitrogen) solution by pipetting with a pasteur pipette (Falcon, 354647). Undissolved tissues or vascular cells were settled, and then a supernatant was taken to measure the cell number and the isolated cells were seeded at 19,000 cells/cm^2 in a 35 mm culture dish coated with poly-L-ornithine (sigma, P3655) and fibronectin (sigma, F4759). The cells were cultured using a serum-free N2 medium (growth medium) added with 10 ng/mL bFGF (Invitrogen) in a 5% CO2 incubator, and the culture medium was replaced after 6 hours and after 24 hours. After 2 days, when the cells proliferated twice or more, subculture was performed.
After 3 days of the primary neural progenitor cell culture, a process of subculturing with 0.05% trypsin was repeated twice, and DNA electroporation or transfection was performed before seeding. […]
The number of cell nuclei labeled with DAPI and the number of cells expressing green fluorescence by overlapping LC3-eGFP expression and DAPI labeling were measured. The number of eGFP-LC3 puncta was measured per cell, and the signal intensity of puncta was measured using a confocal laser microscope program. […]
The autophagy promoting effect of HN-1703 in neurons differentiated by culturing hippocampal neural progenitor cells from rat embryos (E16) was evaluated by performing an LC3-eGFP puncta formation assay. The neural progenitor cells into which an LC3-eGFP recombinant gene was introduced by electroporation were differentiated into neurons, treated with rapamycin and HN-1703 at concentrations of 0.1 μM and 0.5 μM for 12 hours, respectively, and the puncta of LC3-GFP were scanned with a confocal laser microscope (Zeiss, LSM800) to measure the fluorescence intensity of LC3-eGFP and the number of puncta, and the results were illustrated in FIG. 3. Specifically, FIG. 3A illustrates confocal scanning micrographs of LC3-eGFP puncta formation after treated primary cultured hippocampal neurons overexpressing an LC3-eGFP fusion protein with HN-1703, and quantifying the number and fluorescence intensity of LC3-eGFP puncta per cell, and FIG. 3B illustrates a result of LC3-II turnover analysis.

`CO[C@H]1C[C@@H]2CC[C@@H](C)[C@@](O)(O2)C(=O)C(=O)N2CCCC[C@H]2C(=O)O[C@H]([C@H](C)C[C@@H]2CC[C@@H](O)[C@H](OC)C2)CC(=O)[C@H](C)/C=C(\C)[C@@H](O)[C@@H](OC)C(=O)[C@H](C)C[C@H](C)/C=C/C=C/C=C/1C` [rapamycin, reference compound] was tested, and the “increase of the number of LC3-eGFP puncta compared to a control group” value was 49% and the “increase of the signal intensity of LC3-eGFP puncta compared to the control group” value was 15%.
